Measurements as given in US5336485A, “Method for protecting animals against tacrine induced cytotoxic injury using sterol compounds” (priority 1993, dated 1994).
Counter-ions that a name gives are not always drawn. Like-named read-outs stand apart in the source and are kept apart here.

Assays:
rat hepatocytes [1] = test: EMS-induced cytotoxicity (LDH leakage/cell death) in rat hepatocyte suspensions; settings: for inhibition at 25 µM: Rattus norvegicus, Hepatocyte; for inhibition at 25 µM / Percent Cytoprotection: 5 h; for Cell Death: 5 Hrs, alpha-TS 25, methyl ester 50, cholesteryl succinate 100, monomethyl/dimethyl succinate 250 μM
Description: To determine if alpha-TS is a cytoprotective agent under physiological conditions, liver cells were incubated with Waymouth's medium containing approximately 1 mM extracellular Ca^2+ in the presence and absence of alpha-TS.
(§1) At each time-point, rapid separation of viable from non-viable hepatocytes and medium was accomplished by the dibutyl phthalate centrifugation method. Cell viability was monitored hourly by measuring LDH leakage with a Cobas Analyzer and intracellular [K^+ ]with a flame photometer. LDH was routinely measured in the medium while intracellular K^+ was measured in the 10% perchloric acid lysate of viable cells. Lipid peroxidation was determined by measuring TBA reactants in the medium. […] The samples were diluted with 0.3 ml 1% ascorbate in 0.1 M SDS, 0.4 ml ethanol, sonicated and extracted once with 0.8 ml hexane. Next, the hexane extract was evaporated to dryness with N2, the residue dissolved in 2.5% ascorbate in methanol (1 ml) and analyzed (100 μl) by high-performance liquid chromatograph (HPLC). […] The mobile phase, 95% MeOH was run isocratically and the HPLC retention times for delta and alpha-tocopherol were approximately eleven and sixteen minutes, respectively. […] Following the addition of 0.2 ml 4 M HC1, the neutralized KOH-MeOH extracted with 0.8 ml hexane. […] A standard curve for each tocopherol congener was run with every assay. […] Only viable cells were monitored in the laboratory procedures.
To determine the relative cytoprotective potency of various tocopherol derivatives, the effect of varying doses of a tocopherol analog on the protection against EMS-induced toxicity was examined in vitro on rat hepatocyte suspensions. Specifically, the following ionizable tocopherol congeners were tested: alpha-TS, alpha tocopheryl glutarate (alpha-TG), and alpha tocopheryl phosphate (alpha-TP). […] 0.1 nmoles is the lower detection limit.
In vitro experiments were conducted with a variety of different tocopherol and succinate analogs to determine which were protective against EMS induced toxicity. After five hours of incubation with 50 mM EMS and 25μM of a tocopherol or succinate analog, cytoprotection was determined by comparing the percentage of LDH leakage from control hepatocytes (vehicle only, assumed 100% protection) with the EMS only treated cells (assumed 0% protection).
An in vitro experiment with rat hepatocyte suspensions was performed to determine the effect of esterase inhibitors on alpha-TS.
(§2) Rat hepatocyte suspensions were subjected to 50 mM EMS and the percentage of cell death, the percentage of intracellular K^+ (a metabolic parameter as discussed above), the depletion of ATP and the effect on lipid peroxidation were monitored.

male Sprague-Dawley rats = test: CCl4 induced lethality in rats; assay type: in vivo, rat; settings: for Survival after CCl4 treatment: 100 mg/kg ip 24 h prior, […] CCl4 oral; for Days Survived after CCl4: 24 and 1 hour prior
Description: The in vivo effect of alpha-TS was tested by administering a lethal oral dose of carbon tetrachloride (CC14) to male Sprague-Dawley rats.
In the experiment described in Table 3, a single dose of alpha-TS dissolved in peanut oil:ethanol (3:2) was given to male Sprague-Dawley rats. The dose was given 24 hours prior to an orally administered CCl4 challenge dissolved in peanut oil. Two to nine animals were tested per treatment. The control group comprised rats pretreated with the vehicle only. Survival was monitored for at least 7 days after the toxic insult.
In vivo experiments were performed to determine if the time the ionizable tocopherol analog (alpha-TS) is administered affects the cytoprotective functions. Male Sprague-Dawley rats were given a 100 mg/kg intraperitoneal dose of a tocopherol or succinate analog and were given a lethal dose of CCl4 (2.9g/kg by oral gavage). Table 7 contrasts the times of administration of the tocopherol or succinate analog and the times of administration of the lethal dose of CCl4 with the survival of the rats in the study (3to 6 rats per protective treatment).
Several tocopherol and succinate analogs were tested for CCl4 induced lethality. A single dose of the tocopherol or succinate analog was administered twenty four hours prior to orally administering 2.9 g CCl4 /kg body weight. Three to six animals were analyzed per treatment. The rats were monitored for seven days. […]

liver = test: CCl4 induced hepatotoxicity in rats (serum AST/ALT); assay type: in vivo, rat
Description: In vivo experiments were performed to determine if alpha-TS administration protects the liver from chemical toxicity. The liver is the target organ for CCl4. CCl4 is a hepatotoxic agent that induces centrilobular liver necrosis through its metabolism to free radicals. Male Sprague-Dawley rats were given an intraperitoneal dose (100 mg/kg) of a tocopherol analog 24 hours prior to a CCl4 challenge (2.9g/kg given by oral garage). Forty eight hours after the challenge, the rats were sacrificed and the levels of aspartate aminotransferase (AST) and alanine aminotransferase (ALT) were measured.
As discussed above, SGOT levels provide a clinical assessment of hepatotoxicity (liver damage).
Succinate analogs were administered to male Sprague-Dawley rats 20 hours prior to a 1 g CCl4 /kg body weight oral challenge and the AST and ALT serum enzyme levels were measured 48 hours after the challenge.
Similar to the experiments were described above, the ionizable congeners were administered to Sprague-Dawley rats by i.p. injection of a 100 mg ionizable congener/kg body weight dose 20 hours prior to oral administration of a 1 g/kg dose of CCl4, and the AST and ALT levels were measured 48 hours after the CCl4 challenge.

rat hepatocytes [2] = test: EMS-induced lipid peroxidation in rat hepatocyte suspensions; assay type: cell-based; settings: 50 mM EMS, 5 Hrs; concentrations as cell death (Table 15)
Description: as §1, §2

[3] = Tissue distribution of alpha-tocopherol and alpha-tocopherol ester in rats; assay type: in vivo, rat; settings: K+ salt in saline, 1 dose 100 mg/kg, 24 h
Description: 100 mg/kg body weight of a tocopherol analog was administered to Sprague-Dawley rats using a peanut oil:ethanol vehicle (3:2). Twenty four hours later the rats were sacrificed and the accumulation of the tocopherol analog in the liver was determined.
A similar in vivo experiment to that discussed in conjunction with Table 5 was performed to determine if other tissues accumulate alpha-TS. Male Sprague-Dawley rats were given a 100 mg/kg dose of alpha-TS using a variety of chemical forms and vehicles. A variety of techniques were used to administer the alpha-TS. Twenty four hours later the rats were sacrificed and the tissues were tested for alpha-TS accumulation.

[4] = read-out: Percent Cytoprotection, 25 μM, 50 mM EMS, 5 h
[5] = 100 mg/kg, single dose 24 h prior, CCl4 […]
[6] = 100 mg/kg ip, 48 h after 1 g/kg CCl4 (Table 31)
[7] = 1 g/kg, single dose 24 h prior, CCl4 […]

In the case of `Cc1c(C)c2c(c(C)c1OC(=O)CC(C)C(=O)O)CC[C@@](C)(CCC[C@H](C)CCC[C@H](C)CCCC(C)C)O2` (stereo partly drawn) [Alpha-Tocopherol 3-Methyl Succinate, alpha-tocopheryl 3-methyl succinate], the inhibition at 25 µM (rat hepatocytes [1]; [4]) is reported as 70 ± 9%, the “Survival after CCl4 treatment” value (male Sprague-Dawley rats) is reported as “No” and the “Days Survived After CCl4 Treatment” value (male Sprague-Dawley rats; [5]) is reported as 2 days.

With `Cc1c(C)c2c(c(C)c1OC(=O)CCCC(=O)O)CCC(C)(CCCC(C)CCCC(C)CCCC(C)C)O2` (stereo not drawn) [Alpha-Tocopherol Glutarate, alpha-tocopherol monoglutarate] the inhibition at 25 µM (rat hepatocytes [1]; [4]) was 55 ± 15%, the “Survival after CCl4 treatment” value (male Sprague-Dawley rats) was “No” and the “Days Survived After CCl4 Treatment” value (male Sprague-Dawley rats; [5]) was 2 days.

Work on `Cc1c(C)c2c(c(C)c1OC(=O)CCC(N)=O)CC[C@@](C)(CCC[C@H](C)CCC[C@H](C)CCCC(C)C)O2` [Alpha-Tocopherol Succinamide] yielded an inhibition at 25 µM (rat hepatocytes [1]; [4]) of 0%.

For `CC(C)CCC[C@@H](C)[C@H]1CC[C@H]2[C@@H]3CC=C4C[C@@H](O)CC[C@]4(C)[C@H]3CC[C@]12C` [Cholesterol, reference compound], the inhibition at 25 µM (rat hepatocytes [1]; [4]) was 30 ± 16%, the ALT (liver; [6]) was 1.16 ± 0.41 10^3 units/L and the AST (liver; [6]) was 3.03 ± 0.84 10^3 units/L. The “SGOT Levels” value (liver; 100 mg/kg ip, 48 h after 1.0 g/kg CCl4) was 4.08 ± 2.45 10^3 units/L, the “protection against CCl4 hepatotoxicity (in words)” value (liver; rats, serum enzyme levels) was “provided no protection” and the “Survival after CCl4 treatment” value (male Sprague-Dawley rats) was “No”. For the same compound, the “Days Survived After CCl4 Treatment” value (male Sprague-Dawley rats; [5]) was 2 days.

With `Cc1cc(OC(=O)CCC(=O)O)cc2c1OC(C)(CCCC(C)CCCC(C)CCCC(C)C)CC2` (centres unmarked) [Delta-Tocopherol Succinate, Delta-tocopherol mono succinate] the inhibition at 25 µM (rat hepatocytes [1]; [4]) was 70 ± 24%.

`Cc1cc(O)cc2c1OC(C)(CCCC(C)CCCC(C)CCCC(C)C)CC2` (centres unmarked) [Delta-Tocopherol, reference compound] showed an inhibition at 25 µM (rat hepatocytes [1]; read-out: Percent Cytoprotection) of 0%.

For `COC(=O)CCC(=O)OC` [Dimethyl Succinate, reference compound], the “Cell Death” value (rat hepatocytes [1]; 50 mM EMS) was 60 ± 1%, the “Lipid Peroxidation” value (rat hepatocytes [2]) was 12.6 ± 0.2 nmolMDA/10^6 cells and the “Days Survived after CCl4” value (male Sprague-Dawley rats; 1 g/kg) was 2 days. For the same compound, the “Days Survived After CCl4 Treatment” value (male Sprague-Dawley rats; [7]) was 2 days and the “cytoprotection (Table 7, in words)” value (male Sprague-Dawley rats; rat, in vivo) was “not cytoprotective”.

In the case of `Cc1c(C)c2c(c(C)c1OC(=O)CCC(=O)O)CC[C@@](C)(CCC[C@H](C)CCC[C@H](C)CCCC(C)C)O2` [K + salt of Alpha-TS, Alpha-Tocopherol Succinate, K^+ Salt], the “Percent Cytoprotection” value (rat hepatocytes [1]; 25 μM, 50 mM EMS, K^+ Salt, 300 min, 25 µM) is reported as 97 ± 3%, the “alpha-TS, Blood” value ([3]; (c) ip) is reported as 19 nmoles/gm of Tissue and the “alpha-TS, Heart” value ([3]; (c) ip) is reported as 18 nmoles/gm of Tissue. The “alpha-TS, Kidney” value ([3]; (c) ip) was 15 nmoles/gm of Tissue, the “alpha-TS, Liver” value ([3]; (c) ip) was 518 nmoles/gm of Tissue and the “alpha-TS, Lung” value ([3]; (c) ip) was 60 nmoles/gm of Tissue. The “alpha-TS, Plasma” value ([3]; (c) ip) was 24 nmoles/gm of Tissue, the “alpha-TS, Blood” value ([3]; (d) iv) was 18 nmoles/gm of Tissue and the “alpha-TS, Heart” value ([3]; (d) iv) was 24 nmoles/gm of Tissue. The “alpha-TS, Kidney” value ([3]; (d) iv) was 27 nmoles/gm of Tissue, the “alpha-TS, Liver” value ([3]; (d) iv) was 445 nmoles/gm of Tissue and the “alpha-TS, Lung” value ([3]; (d) iv) was 385 nmoles/gm of Tissue. The “alpha-TS, Plasma” value ([3]; (d) iv) was 30 nmoles/gm of Tissue and the “Days Survived After CCl4 Treatment” value (male Sprague-Dawley rats; [5]) was > 7 days.

In the case of `COC(=O)CCC(=O)O` [Monomethyl Succinate, reference compound], the “Cell Death” value (rat hepatocytes [1]; 50 mM EMS) is reported as 61 ± 5%, the “Lipid Peroxidation” value (rat hepatocytes [2]) is reported as 12.8 ± 1.0 nmolMDA/10^6 cells and the “Days Survived after CCl4” value (male Sprague-Dawley rats; 1 g/kg) is reported as 2 days. The “Days Survived After CCl4 Treatment” value (male Sprague-Dawley rats; [7]) was 2 days.

With “d-alpha-tocopheryl polyethylene glycol 1,000 succinate” the “Percent Cytoprotection” value (rat hepatocytes [1]; 25 μM, 50 mM EMS) was 80 ± 15%, the “protection from lethal effects of EMS” value (rat hepatocytes [1]; rat hepatocytes, 25 μM, 50 mM EMS) was “protection was observed against EMS-induced toxicity” and the “Days Survived After CCl4 Treatment” value (male Sprague-Dawley rats; 200 mg/Kg, iv, 24 h prior) was > 7 days. The “Days Survived After CCl4 Treatment” value (male Sprague-Dawley rats; 200 mg/kg, oral, 24 h prior) was 2 days and the “Days Survived After CCl4 Treatment” value (male Sprague-Dawley rats; 100 or 200 mg/Kg, single dose 24 h prior) was > 7 days.
